# Experimental data reported in patent publication US4433154A, “Bis(carboxamide) derivatives” (Shionogi & Company, Limited, priority 1981, dated 1984).
# Biological target: T1, histamine H2 receptor (Cavia porcellus, UniProt P47747)
# T1 construct: enucleated atrium of a guinea pig; from tissue; host or cells: guinea pig atrium
# Assay: Histamine H2-blocking effect in enucleated guinea pig atrium (inhibition of histamine-increased pulse)
# Format: cell-based
# Conditions: in vitro; enucleated guinea pig atrium pretreated with drug; negative logarithm of antagonist dose shifting histamine dose-response curve corresponding to doubling of histamine concentration; read-out: pA2 (converted)
# Source text: In the table 10, the symbol pA2 indicates the degree of pulse inhibition of the compounds (I) in the present invention in the enucleated atrium of a guinea pig. The assigned number of compounds in the table conforms to the number of the examples.
# (Note) PA2 is an in vitro indicator of histamine H2 -blocking effect. […] The result was shown by negative logarithms of the dose of antagonist which is required to shift the dose-response curve of histamine in parallel to the side corresponding to a doubling of the concentration of histamine [Ariens, Molecular Pharmacology, vol./, Academic Press, New York (1964)].
# T1 sequence (P47747 whole entry): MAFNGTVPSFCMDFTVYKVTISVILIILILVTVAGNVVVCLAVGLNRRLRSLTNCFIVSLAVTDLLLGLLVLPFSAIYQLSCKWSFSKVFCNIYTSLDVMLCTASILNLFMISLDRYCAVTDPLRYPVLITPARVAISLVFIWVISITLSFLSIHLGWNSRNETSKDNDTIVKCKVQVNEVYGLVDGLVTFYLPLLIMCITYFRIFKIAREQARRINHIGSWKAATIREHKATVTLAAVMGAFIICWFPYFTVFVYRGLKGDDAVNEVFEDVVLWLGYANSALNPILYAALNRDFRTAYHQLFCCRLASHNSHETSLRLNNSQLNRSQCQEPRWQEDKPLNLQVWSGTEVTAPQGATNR
row,Kb,Compound
1,0.204 µM,O=C(NCCCOc1cccc(CN2CCCC2)c1)c1ccc(C(=O)NCCCOc2cccc(CN3CCCC3)c2)cc1 [Example 11]
2,0.0603 µM,O=C(NCCCOc1cccc(CN2CCCC2)c1)c1cccc(C(=O)NCCCOc2cccc(CN3CCCC3)c2)c1 [Example 14]
3,0.0661 µM,"O=C(CSCC(=O)NCCCOc1cccc(CN2CCCC2)c1)NCCCOc1cccc(CN2CCCC2)c1 [Example 12, N,N'-bis{3-[3-(1-pyrrolidinylmethyl)phenoxy]propyl}thiodiglycoldamide]"
4,0.0537 µM,"O=C(/C=C/C(=O)NCCCOc1cccc(CN2CCCC2)c1)NCCCOc1cccc(CN2CCCC2)c1 [Example 10, N,N'-bis{3-[3-(1-pyrrolidinylmethyl)phenoxy]propyl}fumaramide]"
